Experimental data as given in patent US6197944A, “DNA molecules stabilized by modifications of the 3'-terminal phosphodiester linkage” (Integrated DNA Technologies, Inc., priority 1994, dated 2001).

Tests used:
[1] = test system: mouse globin mRNA (MA-15: mouse α-globin mRNA; CODMB-25: mouse β-globin mRNA); assay: In vitro translation of globin mRNA in rabbit reticulocyte lysate (hybrid-arrested translation, role of RNaseH); type: biochemical; conditions: for inhibition of translation of the targeted mRNA: in words; for % Inhibition Of Globin Synthesis, +poly rA/oligo dT: with poly rA/oligo dT 500 ug/ml (RNaseH inhibitor); for % Inhibition Of Globin Synthesis, +poly rA/oligo dT / % Inhibition Of Globin Synthesis, -poly rA/oligo dT: CODMB-25 4 uM, 1 hour at 30° C.; for % Inhibition Of Globin Synthesis, -poly rA/oligo dT: without poly rA/oligo dT
Method: (§1) For the purpose of these experiments two oligonucleotides were synthesized: 5'-GAGCACCATGGTTTC, MA-15; and 5'-[…],(SEQ ID NO:2) CODMB-25. Both were prepared on a Beckman automated DNA synthesizer using the phophoramidite method. MA-15 is complementary to a sequence within mouse α-globin mRNA spanning the initiation codon. CODMB-25 hybridizes to a sequence within the coding region of mouse β-globin mRNA. Mouse globin mRNA was isolated from reticulocytes obtained from mice rendered anemic by treatment with phenylhydrazine as described by Goosens and Kan (Methods in Enzymology (Antonini, E., Rossi-Bernadi, L., and Chiancone, E., eds.) 76, 805-817, 1981). In vitro translation reactions were carried out in the rabbit reticulocyte lysate system. The reticylocyte lysates used were purchased from ProMega Biotec, and contain RNaseH. Translation reactions were programmed with 1 ug of total mouse reticulocyte RNA. The reactions were allowed to proceed for 1 hour at 30° C. Each sample contained 45 uCi of [^35 S]methionine (Amersham) in a total volume of 25 ul. Protein synthesis was measured by incorporation of [^35 S]methionine into material precipitatable in 10% trichloracetic acid. In control reactions in the absence of oligonucleotide, synthesis of β globin accounts for 60% of the incorporated counts; α globin synthesis accounts for 40% of the radioactivity incorporated into protein. Reactions were carried out in both the presence and absence of poly rA/oligo dT (500 ug/ml).

β-globin mRNA = assay: In vitro translation in rabbit reticulocyte lysate, β-globin synthesis; type: biochemical, mouse; conditions: in words; MA-15 complementary to 12 of 15 residues of β-globin mRNA
Method: as §1, with “Reactions were carried out in both the presence and absence of poly rA/oligo dT (500 ug/ml).” left out

[2] = type: in vitro ADME, human; conditions: 37° C., 15 minutes to 2 hours, heparinized blood
Method: The oligonucleotide MA-15 described in Example 1 was radioactively labeled with ^32 P at the 5'-end of the molecule using γ^32 P-adenosine triphosphate (γ ^32 P-ATP, Amersham) and T4 polynucleotide kinase (Bethesda Research Laboratories):
where the asterisk represents the radiolabel. Separately, a radiolabeled derivative was prepared in which ^32 P was introduced at the 3'most internucleotide link using α^32 P-deoxycytidine triphosphate (dCTP) and DNA polymerase I (Bethesda Research Laboratories):
The reaction catalyzed by DNA polymerase I is between 5'-GAGCACCATGGTTT and dCTP and requires the complementary DNA strand as a template. A 50 fold excess of unlabeled MA-15 was added after the reaction to insure that the labeled derivative is single stranded. These procedures are standard methods for radiolabeling DNA fragments, see for example, Maniatis, T., Fritsch, E. F., and Sambrook, J., Molecular Cloning: A Laboratory Manual, Cold Spring Harbor Laboratory, New York, pp. 114-115 and 122-126, 1982, which is incorporated herein by reference. […]
The modified oligonucleotide was labeled with ^32 P at the 5'-terminal OH group using γ^32 P-ATP and T4 polynucleotide kinase as described in Example 3. […] Aliquots were removed at various times and analyzed by polyacrylamide gel electrophoresis. […]

[3] = Degradation of oligonucleotide in K562 cell extracts; type: in vitro ADME, human
Method: The purpose of these studies was to determine the pathways by which oligonucleotides are degraded by nucleases present within human cells. Radiolabeled derivatives of MA-15 were prepared as in Example 3. Degradation of the oligonucleotide was studied in extracts prepared from the human erythroleukemia cell line K562. The K562 cell line was first isolated by Lozzio, C. B., and Lozzio, B. B., Blood (1975) 45, 321-334, and has been studied extensively as a model for red cell differentiation. The cells were suspended in 10 mM tris buffer pH 7.4 with 5 mM MgCl2, 1 mM CaCl2, 100 mM NaCl, and 0.1% Triton® X-100 (polyethylene glycol 4-isooctylphenyl ether, and homogenized with a cold motor driven teflon pestle homogenizer for 30 seconds. Cell membranes and organelles were further disrupted by sonication by five 15 second bursts using a Biosonic sonifier set on full power. Remaining cell debris was removed from the extracts by centrifugation for 5 minutes at 12,000×g.
The radiolabeled oligonucleotide was incubated in K562 cell extracts under the same conditions as decribed in Example 3 and the degradation products analyzed by polyacrylamide gel electrophoresis. […] The half-life for cleavage of the 3'-terminal internucleotide link was 2 minutes. […] The half-life for cleavage of the 5'-terminal nucleotide unit from the chain by this mechanism was 20 minutes.
The derivative of MA-15 described in Example 5 in which the 3'-terminal internucleotide link was modified as a 2,2,2-trichloro-1,1-dimethylethyl phosphotriester was also used in this study. Extracts from K562 cells were prepared as in Example 4. The modified oligonucleotide was incubated in the cell extracts at 37° C. Aliquots were removed at various times, and the products of degradation were analyzed by polyacrylamide gel electrophoresis.

mouse α-globin mRNA = assay: Cleavage of globin mRNA by E. coli RNaseH after hybridization with oligonucleotide (Northern blot); type: biochemical; conditions: 1.1 nanomoles oligonucleotide in 22 microliters, 2 units E. coli RNaseH, 30 minutes at 37° C.
Method: Mouse globin mRNA was isolated from mice rendered anemic by treatment with phenylhydrazine as described in Example 1. Three oligonucleotides were compared in this study; MA-15, the derivative of MA-15 utilized in Examples 5 and 6 in which the 3'-terminal internucleotide link is modified as a trichlorodimethylethyl phosphotriester (MA-15-TCDM), and a derivative further modified at the 5'-terminal OH group with naphthylisocyanate (NPH-MA-15-TCDM). Mouse globin mRNA (2 micrograms) was added to 1.1 nanomoles of the oligonucleotide in a final volume of 22 microliters containing 10 mM tris-HCl buffer at pH 7.5, 5 mM MgCl2, 25 mM NaCl, and 1 mM dithiothreitol. The reactions were initiated by the addition of 2 units of E. coli RNaseH, and were allowed to proceed for 30 minutes at 37° C. The reactions were stopped by extraction of the samples with a 1:1 mixture of phenol and chloroform. The mRNA species remaining after digestion with RNaseH were isolated by precipitation with ethanol and analyzed on Northern blots.
The RNA samples were reacted with 1 M glyoxal in a 1:1 (volume/volume) mixture of 10 mM sodium phosphate buffer at pH 6.5 and dimethylsulfoxide for 1 hour at 50° C., and then electrophoresed on a 1.5% agarose gel. The RNAs were transferred from the gel to a Gene Screen Plus filter (DuPont-NEN) by capillary blotting according to the method described by the manufacturer. […]

c-myc mRNA = assay: Inhibition of expression of c-myc in MOPC 315 cells (Northern blot); type: cell-based, murine; conditions: either 1 or 5 micromolar, 4 hours at 37° C.
Method: MOPC 315 cells were maintained in RPMI 1640 culture media containing 10% fetal calf serum at 37° C. with 7% CO2. Log phase MOPC 315 cells were harvested by centrifugation (250×g for 19 minutes at 23° C.) and resuspended at a density of 5×10^6 /ml in HB101 serum-free medium (DuPont). One ml aliquots of this cell suspension were incubated in the presence of oligonucleotide for 4 hours at 37° C. and 7% CO2. Additional one ml aliquots were incubated concommitantly without oligonucleotide. Cells from each group were then collected by centrifugation. Total cellular RNA was prepared as described by Chirgwin et al., Biochemistry 18, 5294-5299 (1979), and analyzed by Northern blots as described in Example 7. The filters were probed with an oligonucleotide complementary to c-myc mRNA labeled with ^32 P using polynucleotide kinase and γ^32 P-ATP as in previous examples.

Substance	inhibition of translation of the targeted mRNA [1]	% Inhibition Of Globin Synthesis, +poly rA/oligo dT [1]	% Inhibition Of Globin Synthesis, -poly rA/oligo dT [1]	inhibition of β-globin synthesis (β-globin mRNA)	pathway of degradation in human blood [2]	degradation by 5'- to 3'-exonucleolytic activity in K562 cell extracts ([3]; K562 cell extracts)	primary pathway of degradation in K562 cell extracts ([3]; K562 cell extracts)	rate of degradation compared with that in blood ([3]; K562 cell extracts vs blood)	half-life for cleavage of the 3'-terminal internucleotide link ([3]; K562 cell extracts, 3' to 5' exonucleolytic activity, 37° C.)	half-life for cleavage of the 5'-terminal nucleotide unit from the chain ([3]; K562 cell extracts, 5'- to 3'-exonucleolytic activity, 37° C.)	decrease in intensity of the α-globin mRNA band (RNaseH cleavage) (mouse α-globin mRNA)	effect on c-myc mRNA levels (c-myc mRNA)
5'-GAGCACCATGGTTTC [MA-15]	very effectively inhibited translation of the targeted mRNA	3%	51%	inhibits β-globin synthesis to some extent	sequential exonucleolytic cleavage of the strand from the 3'-toward the 5'-end of the chain	A slower 5'- to 3'-exonucleolytic activity was also observed	3' to 5' exonucleolytic activity	much faster than that in blood	2 min	20 min	marked decrease in the intensity of the band for α-globin mRNA	–
5'-T CCCTTCATCCCGAAGTT C (antisense TCCCTTCATCCCGAAGTTC; TCDM group attached, position not given here) [anti-albumin oligonucleotide, oligonucleotide complementary to human albumin mRNA; ( ) again represents the TCDM group]	–	–	–	–	–	–	–	–	–	–	–	no effect
5'-TGTCCAAGTGATTCAGGCCATCGTT [CODMB-25]	very effectively inhibited translation of the targeted mRNA	5%	61%	–	–	–	–	–	–	–	–	–
